In test [1] the test system is Botrytis cinerea. Put plainly: Test B: gray mold, preventive spray on tomato seedlings. As to conditions: 10 ppm; gray mold on tomato; 100 = 100% disease control, 0 = no control.
Test [2] relates to Puccinia recondita f sp. tritici. Put plainly: Test F: wheat leaf rust, preventive spray on wheat seedlings. As to conditions: 10 ppm; wheat leaf rust; 100 = 100% disease control, 0 = no control.
From the text: (§1) General protocol for preparing test solutions for Tests A-G: the test compounds were first dissolved in acetone in an amount equal to 3% of the final volume and then suspended at the desired concentration (in ppm) in acetone and purified water (50/50 mix by volume) containing 250 ppm of the surfactant PEG400 (polyhydric alcohol esters). The resulting test suspensions were then used in Tests A-G. Compounds were sprayed at a concentration of 50 ppm (*) or 10 ppm to the point of run-off on the test plants, the equivalent of a rate of 200 g/ha or 40 g/ha, respectively.
The test solution was sprayed to the point of run-off on wheat seedlings. The following day the seedlings were inoculated with a spore suspension of Puccinia recondita f sp. tritici; (the causal agent of wheat leaf rust) and incubated in a saturated atmosphere at 20° C. for 24 h, and then moved to a growth chamber at 20° C. for 6 days, after which time visual disease ratings were made.
A dash (-) indicates no test results. Compounds with an asterisks (*) were applied at a concentration of 50 ppm, otherwise test solutions were applied at 10 ppm.
Test [3] deals with Zymoseptoria tritici. Description: Test E: wheat leaf blotch, preventive spray on wheat seedlings. As to conditions: 10 ppm; wheat leaf blotch; 100 = 100% disease control, 0 = no control.
The test system of test [4] is Stagonospora nodorum. Put plainly: Test D: wheat glume blotch, preventive spray on wheat seedlings. As to conditions: 10 ppm; wheat glume blotch; 100 = 100% disease control, 0 = no control.
For test [5], the system named is Erysiphe graminis f sp. tritici. Description: Test G: wheat powdery mildew, preventive spray on wheat seedlings. As to conditions: 10 ppm; wheat powdery mildew; 100 = 100% disease control, 0 = no control.
From the text: as §1
The test solution was sprayed to the point of run-off on wheat seedlings. The following day the seedlings were inoculated with a spore dust of Erysiphe graminis f sp. tritici, (the causal agent of wheat powdery mildew) and incubated in a growth chamber at 20° C. for 8 days, after which time visual disease ratings were made.
Compounds with an asterisks (*) were applied at a concentration of 50 ppm, otherwise test solutions were applied at 10 ppm.

This note sets out measurements from patent publication US20160242416A1, “FUNGICIDAL ISOXAZOLINE CARBINOLS” (E I DU PONT DE NEMOURS AND COMPANY, priority 2015, published 2016).

Take `CC(C)(C)CC1CC(C(O)(Cn2cncn2)C(C)(C)C)=NO1` (single isomer, unassigned) [Compound 78]: the “Test B rating (% disease control)” value in test [1] worked out at 0%. The “Test F rating (% disease control)” value in test [2] is reported as 0%. Moreover, in test [3], the “Test E rating (% disease control)” value turned out to be 0%. In test [4], the “Test D rating (% disease control)” value is listed as 0%. The “Test G rating (% disease control)” value in test [5] is 0%.
As to `CC(C)(C)C(O)(Cn1cncn1)C1=NOC(COc2ccc(F)cc2)C1` (single isomer, unassigned) [Compound 79], in test [1], the “Test B rating (% disease control)” value was 97%. For the same molecule, in test [2], the “Test F rating (% disease control)” value is 100%. Also, the “Test E rating (% disease control)” value in test [3] was 21%. Besides, the “Test D rating (% disease control)” value in test [4] amounted to 100%. Moreover, the “Test G rating (% disease control)” value in test [5] turned out to be 99%.
For the molecule `CC(C)(C)C(O)(Cn1cncn1)C1=NOC(COc2ccc(F)cc2)C1` (single isomer, unassigned) [Compound 80], in test [1], the “Test B rating (% disease control)” value is recorded as 82%. In test [2], the “Test F rating (% disease control)” value was determined as 100%. Further, the “Test E rating (% disease control)” value in test [3] was found to be 1%. In addition, the “Test D rating (% disease control)” value in test [4] is 100%. Also, in test [5], the “Test G rating (% disease control)” value was found to be 99%.
Turning to `CC(C)(C)C(O)(Cn1cncn1)C1=NOC(COc2ccc(C(F)(F)F)cc2)C1` (single isomer, unassigned) [Compound 81], the “Test B rating (% disease control)” value in test [1] is given as 57%. Further, the “Test F rating (% disease control)” value in test [2] is given as 100%. Further, the “Test E rating (% disease control)” value in test [3] is listed as 95%. In test [4], the “Test D rating (% disease control)” value amounted to 100%. Also, the “Test G rating (% disease control)” value in test [5] is 100%.
Turning to `CC(C)(C)C(O)(Cn1cncn1)C1=NOC(Cc2ccccc2)C1` (single isomer, unassigned) [Compound 86], the “Test B rating (% disease control)” value in test [1] came to 72%. Further, in test [2], the “Test F rating (% disease control)” value was found to be 74%. For the same molecule, the “Test E rating (% disease control)” value in test [3] came to 1%. For the same molecule, the “Test D rating (% disease control)” value in test [4] was 99%. Also, the “Test G rating (% disease control)” value in test [5] is 98%.
As to `CC(C)(C)C(O)(Cn1cncn1)C1=NOC(Cc2ccccc2)C1` (single isomer, unassigned) [Compound 87], the “Test B rating (% disease control)” value in test [1] worked out at 83%. Also, the “Test F rating (% disease control)” value in test [2] worked out at 99%. For the same molecule, the “Test E rating (% disease control)” value in test [3] was 1%. For the same molecule, the “Test D rating (% disease control)” value in test [4] came out at 99%. In addition, the “Test G rating (% disease control)” value in test [5] was 98%.
With `CC(C)(C)C(O)(Cn1cncn1)C1=NOC(COc2ccc(C(F)(F)F)cc2)C1` (single isomer, unassigned) [Compound 88], the “Test B rating (% disease control)” value in test [1] worked out at 0%. Moreover, in test [2], the “Test F rating (% disease control)” value is 100%. For the same molecule, the “Test E rating (% disease control)” value in test [3] is on record as 76%. Further, the “Test D rating (% disease control)” value in test [4] turned out to be 99%. For the same molecule, the “Test G rating (% disease control)” value in test [5] was 99%.
As to `OC(Cn1cncn1)(C1=NOC(COC2CCCCC2)C1)c1ccc(Cl)cc1` (single isomer, unassigned) [Compound 89], the “Test B rating (% disease control)” value in test [1] came out at 0%. Also, in test [2], the “Test F rating (% disease control)” value is reported as 0%. For the same molecule, in test [3], the “Test E rating (% disease control)” value is reported as 0%. Besides, in test [4], the “Test D rating (% disease control)” value worked out at 0%. For the same molecule, in test [5], the “Test G rating (% disease control)” value is listed as 76%.
As for `OC(Cn1cncn1)(C1=NOC(COC2CCCCC2)C1)c1ccc(Cl)cc1` (single isomer, unassigned) [Compound 90], in test [1], the “Test B rating (% disease control)” value worked out at 0%. Moreover, the “Test F rating (% disease control)” value in test [2] is given as 0%. In addition, the “Test E rating (% disease control)” value in test [3] was determined as 0%. Further, in test [4], the “Test D rating (% disease control)” value was found to be 59%. Further, in test [5], the “Test G rating (% disease control)” value is 64%.
Regarding `CC(C)(C)C(O)(Cn1cncn1)C1=NOC(COC2CCCCC2)C1` (single isomer, unassigned) [Compound 91], the “Test B rating (% disease control)” value in test [1] is listed as 0%. Moreover, in test [2], the “Test F rating (% disease control)” value worked out at 0%. Also, in test [3], the “Test E rating (% disease control)” value came to 2%. Besides, the “Test D rating (% disease control)” value in test [4] is listed as 20%. Further, the “Test G rating (% disease control)” value in test [5] is listed as 56%.
In the case of `CC(C)(C)C(O)(Cn1cncn1)C1=NOC(COC2CCCCC2)C1` (single isomer, unassigned) [Compound 92], in test [1], the “Test B rating (% disease control)” value is 0%. Moreover, the “Test F rating (% disease control)” value in test [2] was 0%. In test [3], the “Test E rating (% disease control)” value was 3%. The “Test D rating (% disease control)” value in test [4] came out at 10%. In addition, in test [5], the “Test G rating (% disease control)” value came out at 13%.
As for `CC(C)(C)C(O)(Cn1cncn1)C1=NOC(COc2ccc(Cl)cn2)C1` (single isomer, unassigned) [Compound 95], the “Test B rating (% disease control)” value in test [1] is given as 100%. Besides, the “Test F rating (% disease control)” value in test [2] was 100%. In addition, the “Test E rating (% disease control)” value in test [3] is 0%. Besides, the “Test D rating (% disease control)” value in test [4] was found to be 100%. In test [5], the “Test G rating (% disease control)” value was 100%.
`CC(C)(C)C(O)(Cn1cncn1)C1=NOC(COc2ccc(Cl)cn2)C1` (single isomer, unassigned) [Compound 96]: the “Test B rating (% disease control)” value in test [1] came to 85%. Moreover, in test [2], the “Test F rating (% disease control)” value turned out to be 100%. Also, the “Test E rating (% disease control)” value in test [3] was found to be 5%. In test [4], the “Test D rating (% disease control)” value came out at 100%. For the same molecule, the “Test G rating (% disease control)” value in test [5] is listed as 99%.
Turning to `CC(C)(C)C(O)(Cn1cncn1)C1=NOC(COc2ccc(Cl)nc2)C1` (single isomer, unassigned) [Compound 97], the “Test B rating (% disease control)” value in test [1] is listed as 0%. The “Test F rating (% disease control)” value in test [2] amounted to 98%. Further, the “Test E rating (% disease control)” value in test [3] was 0%. Besides, the “Test D rating (% disease control)” value in test [4] stood at 99%. Further, the “Test G rating (% disease control)” value in test [5] was determined as 94%.
In the case of `CC(C)(C)C(O)(Cn1cncn1)C1=NOC(COc2ccc(Cl)nc2)C1` (single isomer, unassigned) [Compound 98], the “Test B rating (% disease control)” value in test [1] stood at 0%. Further, the “Test F rating (% disease control)” value in test [2] amounted to 88%. In test [3], the “Test E rating (% disease control)” value is 0%. Besides, in test [4], the “Test D rating (% disease control)” value is 0%. The “Test G rating (% disease control)” value in test [5] is 55%.
With `CC(C)(C)C(O)(Cn1cncn1)C1=NOC(COc2ncc(Cl)cn2)C1` (single isomer, unassigned) [Compound 99], in test [1], the “Test B rating (% disease control)” value came to 0%. Further, the “Test F rating (% disease control)” value in test [2] was determined as 95%. For the same molecule, in test [3], the “Test E rating (% disease control)” value was found to be 0%. Moreover, in test [4], the “Test D rating (% disease control)” value is recorded as 63%. Also, in test [5], the “Test G rating (% disease control)” value is 96%.
In the case of `CC(C)(C)C(O)(Cn1cncn1)C1=NOC(COc2ncc(Cl)cn2)C1` (single isomer, unassigned) [Compound 100], the “Test B rating (% disease control)” value in test [1] worked out at 0%. Also, the “Test F rating (% disease control)” value in test [2] is 79%. In addition, in test [3], the “Test E rating (% disease control)” value stood at 0%. Also, in test [4], the “Test D rating (% disease control)” value came out at 77%. For the same molecule, the “Test G rating (% disease control)” value in test [5] is on record as 92%.
On to `OC(Cn1cncn1)(C1=NOC(COc2ccc(Cl)nc2)C1)c1ccc(Cl)cc1` (single isomer, unassigned) [Compound 101], for which, in test [1], the “Test B rating (% disease control)” value is on record as 0%. The “Test F rating (% disease control)” value in test [2] was 100%. Moreover, the “Test E rating (% disease control)” value in test [3] is reported as 0%. For the same molecule, in test [4], the “Test D rating (% disease control)” value worked out at 0%. Further, the “Test G rating (% disease control)” value in test [5] worked out at 99%.
